# Results as given in patent US8034941B2, “Imidazopyridazinone and imidazopyridone derivatives, the preparation thereof and their use as pharmaceutical compositions” (Boehringer Ingelheim International GmbH, priority 2003, dated 2011).
# Molecular target: T1, DPP-IV (Homo sapiens, UniProt P27487)
# T1 construct: an extract of human colon carcinoma cell line Caco-2 is used as the DPP IV source; endogenous in cells; host or cells: Caco-2 (human colon carcinoma), differentiated to induce DPP-IV expression; Nonidet-P40 solubilised extract
# T1 sequence (P27487 whole entry): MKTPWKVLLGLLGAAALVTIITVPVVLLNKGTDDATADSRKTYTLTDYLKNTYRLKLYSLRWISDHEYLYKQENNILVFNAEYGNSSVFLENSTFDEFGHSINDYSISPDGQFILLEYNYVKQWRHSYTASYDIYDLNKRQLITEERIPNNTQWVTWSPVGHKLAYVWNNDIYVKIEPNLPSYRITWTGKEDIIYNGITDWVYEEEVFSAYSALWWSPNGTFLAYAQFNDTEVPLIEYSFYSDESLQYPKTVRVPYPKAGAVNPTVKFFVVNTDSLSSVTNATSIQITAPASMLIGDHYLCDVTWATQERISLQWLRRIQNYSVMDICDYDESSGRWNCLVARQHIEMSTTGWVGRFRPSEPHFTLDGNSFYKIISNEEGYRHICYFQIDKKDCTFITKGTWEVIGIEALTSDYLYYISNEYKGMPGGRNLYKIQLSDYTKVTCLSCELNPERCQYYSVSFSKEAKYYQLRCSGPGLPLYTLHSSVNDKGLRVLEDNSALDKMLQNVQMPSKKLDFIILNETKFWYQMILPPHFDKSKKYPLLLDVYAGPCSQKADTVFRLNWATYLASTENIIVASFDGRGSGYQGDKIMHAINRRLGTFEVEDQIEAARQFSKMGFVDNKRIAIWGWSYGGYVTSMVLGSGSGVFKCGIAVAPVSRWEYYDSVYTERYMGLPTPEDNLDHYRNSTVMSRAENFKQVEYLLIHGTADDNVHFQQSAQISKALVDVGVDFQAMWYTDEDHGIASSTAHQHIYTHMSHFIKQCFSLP
# Test: DPP-IV assay with Caco-2 cell extract as DPP IV source, AFC substrate, fluorescence
# Assay type: biochemical
# Conditions: extract of human colon carcinoma cell line Caco-2; substrate 100 μM; 60 minutes at ambient temperature; read-out: DPP IV inhibition IC50
# Experimental: The cell extract was obtained from cells solubilised in a buffer (10 mM Tris HCl, 0.15 M NaCl, 0.04 t.i.u. aprotinin, 0.5% Nonidet-P40, pH 8.0) by centrifuging at 35,000 g for 30 minutes at 4° C. (to remove cell debris).
# The DPP-IV assay was carried out as follows:
# 50 μl substrate solution (AFC; AFC is amido-4-trifluoromethylcoumarin), final concentration 100 μM, were placed in black microtitre plates. 20 μl of assay buffer (final concentrations 50 mM Tris HCl pH 7.8, 50 mM NaCl, 1% DMSO) was pipetted in. The reaction was started by adding 30 μl of solubilised Caco-2 protein (final concentration 0.14 μg of protein per well). The test substances to be investigated were typically added prediluted in 20 μl, and the volume of assay buffer was then reduced accordingly. The reaction was carried out at ambient temperature, incubating for 60 minutes. […] Blank readings (corresponding to 0% activity) were obtained in mixtures without any Caco-2 protein (volume replaced by assay buffer), control values (corresponding to 100% activity) were obtained in mixtures with no substance added.
row,SMILES,IC50 [nM]
1,"CC#CCn1c(N2CCCC(N)C2)nc2cnn(Cc3nc4ccccc4c4ccccc34)c(=O)c21 (centres unmarked) [1(1), 2-(3-amino-piperidin-1-yl)-3-(2-butyn-1-yl)-5-[(phenanthridin-6-yl)methyl]-3,5-dihydro-imidazo[4,5-d]pyridazin-4-one]",17
2,"CC#CCn1c(N2CCCC(N)C2)nc2cnn(Cc3cc4ccccc4c4ccccc34)c(=O)c21 (centres unmarked) [1(2), 2-(3-amino-piperidin-1-yl)-3-(2-butyn-1-yl)-5-[(phenanthren-9-yl)methyl]-3,5-dihydro-imidazo[4,5-d]pyridazin-4-one]",58

# The next lines start with the values.
row,IC50 [nM],SMILES
1,8,"CC#CCn1c(N2CCC[C@@H](N)C2)nc2c(C)nn(Cc3nc4ccccc4c4ccccc34)c(=O)c21 [1(3), 2-((R)-3-amino-piperidin-1-yl)-3-(2-butyn-1-yl)-5-[(phenanthridin-6-yl)methyl]-7-methyl-3,5-dihydro-imidazo[4,5-d]pyridazin-4-one x trifluoroacetic acid]"
2,9,"CC#CCn1c(N2CCC[C@@H](N)C2)nc2c(C)nn(CC3=Nc4ccccc4Oc4ccccc43)c(=O)c21 [1(4), 2-((R)-3-amino-piperidin-1-yl)-3-(2-butyn-1-yl)-5-[(dibenzo[b,f][1,4]oxazepin-11-yl)methyl]-7-methyl-3,5-dihydro-imidazo[4,5-d]pyridazin-4-one]"
3,3,"CC#CCn1c(N2CCC[C@@H](N)C2)nc2cnn(Cc3nc4ccc5ccccc5c4o3)c(=O)c21 [1(7), 2-((R)-3-amino-piperidin-1-yl)-3-(2-butyn-1-yl)-5-[(naphtho[2,1-d]oxazol-2-yl)methyl]-3,5-dihydro-imidazo[4,5-d]pyridazin-4-one]"
4,7,"CC#CCn1c(N2CCC[C@@H](N)C2)nc2cnn(Cc3nc4c(ccc5ccccc54)o3)c(=O)c21 [1(8), 2-((R)-3-amino-piperidin-1-yl)-3-(2-butyn-1-yl)-5-[(naphtho[1,2-d]oxazol-2-yl)methyl]-3,5-dihydro-imidazo[4,5-d]pyridazin-4-one]"
5,3,"CC#CCn1c(N2CCC[C@@H](N)C2)nc2cnn(Cc3nc4ccccc4c(=O)[nH]3)c(=O)c21 [1(9), 2-((R)-3-amino-piperidin-1-yl)-3-(2-butyn-1-yl)-5-[(4-oxo-3,4-dihydro-quinazolin-2-yl)methyl]-3,5-dihydro-imidazo[4,5-d]pyridazin-4-one]"

# Test system: rats
# Test: Tolerability after oral administration to rats (behaviour)
# Assay type: in vivo
# Conditions: 10 mg/kg
row,SMILES,changes in the animals' behaviour
1,"CC#CCn1c(N2CCCC(N)C2)nc2cnn(CC3=Nc4ccccc4Oc4ccccc43)c(=O)c21 (centres unmarked) [Example 1, 2-(3-amino-piperidin-1-yl)-3-(2-butyn-1-yl)-5-[(dibenzo[b,f][1,4]oxazepin-11-yl)methyl]-3,5-dihydro-imidazo[4,5-d]pyridazin-4-one]",no changes in the animals' behaviour could be detected
